# Experimental data reported in patent US20050272068A1, “UCH-L1 expression and cancer therapy” (The Brigham and Women's Hospital, Inc., priority 2004, published 2005).
# “Also recorded” adds a separate entry of the source.
# B1: UCH-L1 C220S mutant (S18 background), expressed in E. coli and purified (enzyme, UniProt P09936 1-223, looked up)
# chain: MQLKPMEINPEMLNKVLSRLGVAGQWRFVDVLGLEEESLGSVPAPACALLLLFPLTAQHENFRKKQIEELKGQEVSPKVYFMKQTIGNSCGTIGLIHAVANNQDKLGFEDGSVLKQFLSETEKMSPEDRAKCFEKNEAIQAAHDAVAQEGQCRVDDKVNFHFILFNNVDGHLYELDGRMPFPVNHGASSEDTLLKDAAKVCREFTEREQGEVRFSAVALSKAA
# notes: also called C220S variant
# Tests used:
# α-synuclein [1] = test: alpha-synuclein degradation assay in transfected COS-7 cells (quantitative Western blotting); type: cell-based; conditions: 35 μM lactacystin 24 hours, normalized against actin, defines the 100% reference
# Excerpt: Plasmids: C220S cDNA was generated by PCR site-specific mutagenesis. For the PCR, the 5′ primer is uchforw ([…]) (SEQ ID NO: 5), and 3′ primer is uchc220s ([…] TGCTGAGAGC) (SEQ ID NO: 6). Wt UCH-L1 served as the template. The PCR fragment was inserted into pcDNA vector. For S18YC220S mutant, S18Y UCH-L1 served as the template in PCR. For the FLAG tagged UCH-L1, the 5′ primer is FLAGuchforw ([…] GCAGCTCAAGCCGATGGAG) (SEQ ID NO: 7), and the 3′ primer is uchrev ([…]) (SEQ ID NO: 8). Wt UCH-L1 or C220S served as the template. PCR fragment was purified and inserted into pcDNA vector. For the FLAG tagged UCH-L3, the 5′ primer is L3HindIII ([…] CTG) (SEQ ID NO: 9), the 3′primer is L3XhoISAA (ATCCTCGAGCTATGCT GCAGAAAGAGCAATCGCA) (SEQ ID NO: 10). For the UCH-L3 CKAA variant, the 5′ primer is L3 HindIII and the 3′ primer is L3XhoICKAA (ATCCTCGAGCTA […]) (SEQ ID NO: 11). α-synuclein degradation assay: Liphitamine 2000 was used to transfect COS-7 cells according to the Invitrogen protocol. Transfected cells were cultured at 37° C. for 48 hours before being treated with 35 μM lactacystin or DMSO. After 24 hours of incubation, the cells were lysed with Tris buffer (50 mM Tris, 2% SDS, 0.1% NP-40), and subjected to SDS-PAGE, followed by quantitative Western blotting. […]
# α-synuclein [2] = test: Amount of alpha-synuclein in infected SH-SY5Y cells by Western blotting; type: cell-based; conditions: SH-SY5Y cells infected with alpha-synuclein-expressing adenovirus, normalized against actin
# Experimental: (§1) Viral Infection: Viral infection and MTT assay in SH—SY5Y cells: The viruses were amplified and purified according to the published procedure. SH—SY5Y cells were grown on 100 mm petri-dishes and induced with 100 nM RA for 3-5 days before the virus infection with M.I.O at 75. Viruses were diluted with DPBS to desired M.I.O. After four hours of incubation, 10 ml growth medium was added. On the second day, cells were splitted into 96-well plates and treated with compounds for next 48 hours. The growth medium in each well was replaced with growth medium with 5 ug/ml MTT. Medium was removed after three hours incubation, and 200 ul isopropyl (0.04N HCl) was added into each well. The signal was read at 570 nm.
# (§2) Western Blotting: Following transfer of SDS gels onto NC membrane, all membranes were blocked with 5% non-fat milk in TBST (50 mM Tris-HCl pH7.4, 150 mM NaCl, 0.1% Tween 20), and incubated with primary antibody overnight with 1% BSA in TBST, washed three times with TBST, and incubated with horseradish peroxidase-conjugated secondary antibody for 1 hour (Promega). Bound antibodies were detected using enhanced chemiluminascence (NEM).
# Since α-synuclein neurotoxicity is dose-dependent, it follows that accumulation of α-synuclein, caused by UCH-L1 farnesylation, should promote its toxicity. […] (F) Cell viability was assessed by the amount of metabolic activity using MTT assay. […]
# UCH-L1 [3] = test: Pulse-chase experiment, UCH-L1 turnover in SH-SY5Y cells; type: cell-based; conditions: pulse-chase experiment not shown
# Excerpt: Treatment with FTI-277 reduced the total amount of UCH-L1 in SH—SY5Y cells and increased its rate of turnover (pulse-chase experiment not shown), in addition to reducing the amount of membrane-associated protein.
# H1299 = test: Cell growth by counting living cells as a function of time, H1299; type: cell-based
# Experimental: (§3) To test the effect of farnesyl transferase inhibitor in a cell culture model, H1299 and H358 (FIG. 5B) were treated with 100 nM FTI-277 or DMSO. As a comparison, H1299 was also treated with 5 μM LDN-57414 (UCH-L1 inhibitor), which we have previously shown to increase H1299 cell proliferation (Liu et al 2003). Cell growth was quantified by counting the number of living cells as a function of time. […] The initial acceleration of cell growth in H1299, thus, may be the consequence of inhibition on UCH-L1 farnesylation. This possibility may explain the minimal clinical activity of farnesyl transferase inhibitor in treating patients with NSCLC.
# SH-SY5Y cells = test: alpha-synuclein toxicity in SH-SY5Y cells infected with alpha-synuclein-expressing adenovirus (Trypan blue viable cell counting, MTT assay); type: cell-based; conditions: SH-SY5Y cells overexpressing alpha-synuclein via adenoviral vector, compounds for 48 hours, vs DMSO
# Experimental: as §1
# Viable cell counting: At stated time poins, SH—SY5Y cells were trypsinized with 100 ul trypsin-EDTA for 1 minute and neutralized with 400 ul growth medium. Cell suspension was made up by mixing 0.2 ml of cells in growth medium, 0.3 ml of HBSS and 0.5 ml of 0.4% Trypan Blue solution. Viable cell numbers were counted by standard cell counting chamber.
# Since α-synuclein neurotoxicity is dose-dependent, it follows that accumulation of α-synuclein, caused by UCH-L1 farnesylation, should promote its toxicity. […] These cells express high endogenous levels of UCH-L1. […] The unit of y-axis is 10^5/ml. (F) Cell viability was assessed by the amount of metabolic activity using MTT assay. […]
# UCH-L1 [4] = test: UCH-L1 species in SH-SY5Y cells by 2D electrophoresis and Western blotting (membrane, cytosolic, total); type: cell-based
# Experimental: Membrane fractionation: Cells were harvested by scraping and washed with PBS. Cell pellet was suspended in lysis buffer (50 mM Tris-HCl, 1 mM EDTA) supplemented with protease inhibitor cocktail (Sigma) and homogenized by passing through 26G needles 10 times. Suspension was clarified by spinning at 600 g for 5 minutes. Clarified suspension was ultracentrifuged at 100,000 g for 2 hours and separated into membrane and cytosol. Membrane fraction was washed with washing buffer (50 mM Tris-HCl, 1 mM EDTA 1M NaCl), and pelleted each time with bench-top centrifuge.
# 2D electrophoresis: For the isolation of total cellular protein, cultured SH—SY5Y cells maintained as described above were rinsed with ice-cold PBS. Cells were lysed in 1 ml dSDS buffer (50 mM Tris-HCl, pH 8.0 0.1% SDS) supplemented with protease inhibitor cocktail. Lysates were boiled for 3 min, and were treated with Dnase and Rnase as described. Lysates were precipitated with ice-cold acetone for at least 2 hours, and pellets were resuspended in 2D sample buffer (8M urea, 0.5% CHAPS, 0.2% DTT, 0.5% IPG buffer, 0.002% bromophenol blue). 2D electrophoresis was carried out according to manufacture's protocol (Amersham Life Science). 7 cm pH 4-7 strips were used. For SH—SY5Y membrane fraction, culture SH—SY5Y cells were rinsed with cold PBS and harvested with lysis buffer (50 mM Tris-HCl, pH 8.0, 1 mM ZnAc2, 250 mM sucrose). Lysate was passed through 25 G needles for several times and spun at 1000 g for 5 min. Supernatant was centrifuged at 200,000 g for 2 hours. Pellet was extensively washed with lysis buffer and extracted with cold acetone. Pellet was resuspended in 2D sample buffer.
# as §2, with “(NEM). […]” for “(NEM).”
# H358 = test: Cell growth by counting living cells as a function of time, H358; type: cell-based; conditions: 100 nM FTI-277, H358 does not express UCH-L1, vs DMSO control
# Experimental: as §3
# [5] = molecular target: the molecule itself; test: self-oligomerisation of purified protein, method not described
# [6] = compared to cells treated with DMSO
molecule,measurement,setting,value
CC(=O)N[C@@H](CSC(=O)[C@]1([C@@H](O)C(C)C)NC(=O)[C@H](C)[C@@H]1O)C(=O)O [lactacysteine],accumulation of alpha-synuclein,α-synuclein [1],100%
COC(=O)[C@H](CCSC)NC(=O)c1ccc(NC[C@@H](N)CS)cc1-c1ccccc1 [FTI-277],amount of alpha-synuclein,α-synuclein [2],reduced; also recorded: reducing
same,UCH-L1 rate of turnover,UCH-L1 [3],increased
same,initial cell growth in H1299,"H1299; 100 nM FTI-277, vs DMSO control",promoted initial cell growth
same,H1299 cell growth after 24 hours of compound treatment,H1299; 100 nM FTI-277 or 5 μM LDN-57414,began to show toxicity
same,alpha-synuclein toxicity (loss of cells / viability),SH-SY5Y cells,significantly decreased loss of cells; also recorded: rescued; also recorded: protects
same,total amount of UCH-L1,UCH-L1 [4],reduced
same,amount of cytosolic UCH-L1,UCH-L1 [4]; [6],without affecting
same,amount of membrane bound UCH-L1,UCH-L1 [4]; [6],significant decrease; also recorded: decreased; also recorded: reducing
same,initial cell growth in H358,H358,induced initial toxicity
B1,binding result,[5],binds
